Here are results for two sequences from patent US8883165B2, “Modified peptide vaccine derived from influenza M2” (The Chemo-Sero-Therapeutic Research Institute, priority 2009, dated 2014).

Several values for one entry are separate records, joined by “and”; a condition that tells them apart may be missing. Equal values may be shown once. Entries after “also recorded” stand apart in the source; their conditions may differ. Read-outs that look alike come from different tables or passages of the source.

Assay [1] relates to M2e. Also noted: species or system BALB/c mice. The note with it: mouse, in vivo.
The subject of assay [2] is Influenza virus (A/PR8/8/34 strain, H1N1). Set-up: species or system BALB/c mice. Conditions: mouse, in vivo.
The subject of assay [3] is M2e. Also noted: species or system BALB/c mice. The note with it: mouse, in vivo. This is another data set of the same source.
Assay [4] relates to Influenza virus (A/PR8/8/34 strain, H1N1). In kind it is in vivo, BALB/c mice. Conditions: 21 days.

“SLLTEVETPIRNEWGCRCNDSSD (Influenza A virus) [M2e, peptide of 23 amino acid residues, positions No. 2 to No. 24 of M2 in influenza virus type A, no cysteine inserted, reference compound]”: in assay [1], the “anti-M2e antibody titer just before challenge” value is recorded as “could not induce an anti-M2e antibody titer”. Moreover, the Survival rate in assay [2] was 3/8.

As for “SLLTEVETPTRSEWECRCSDSSD [swM2e, reference compound]”, the “anti-M2e antibody titer immediately before challenge” value in assay [3] is on record as “high anti-M2e antibody titer; also recorded: almost no increase in an antibody titer”. Besides, the Survival rate in assay [4] was 4/10 and 8/10.
